Source: patent US8642774B2, “Compounds” (Boehringer Ingelheim International GmbH, priority 2011, dated 2014)

Target: T1, human recombinant mGluR5 (Homo sapiens, UniProt P41594)
T1 construct: expressed in transfected cells; host or cells: HEK 293 cell line, cultured with tetracycline, hygromycin and geneticin; tetracycline is withdrawn 3-7 days before the assay
Test: positive modulation of mGluR5, calcium based FLIPR assay
Assay type: cell-based
Settings: EC50 of the modulation; HEK 293 cell line expressing human recombinant mGluR5; peak height of Ca fluorescence signal after glutamate at approx. 5% basal stimulation; read-out: EC50
Procedure: The positive modulation of mGluR5 is measured in a HEK 293 cell line expressing human recombinant mGluR5 and is detected with calcium based FLIPR assay. The cells are cultured with DMEM supplemented with 10% FCS, 2 μg/mL tetracycline, 100 μg/mL hygromycin and 500 μg/mL gneticin. The cell culture media is exchanged for tetracycline-free cell culture media 3-7 days before the assay. One day before the assay the cell culture medium is exchanged to DMEM without glutamine and phenol red and supplemented with 10% FCS, 100 μg/mL hygromycin and 500 μg/mL geneticin. On the assay day, the medium of the subconfluent cultures is removed and the cells are detached by addition of 2.5 ml EDTA (0.02%) per 175 cm2 culture flask for 1 minute. The cells are resuspend in Ringer solution (140 mM NaCl, 5 mM KCl, 2.5 mM CaCl2, 1.5 mM MgCl2, 5 mM Glucose, 10 mM Hepes; adjusted to pH 7.4 with NaOH), pooled and Ringer solution added to adjust the volume to 50 mL. The cell suspension is centrifuged for 5 min at 1500 U/min (425 g). The supernatant is removed and the cells washed a second time with 50 ml fresh Ringer solution and centrifuged again as before. The supernatant is again removed and the pellet resuspended in Ringer solution to 1,000,000 cells/ml (1×10^6 cells/mL). The cells are plated onto BD BioCoat Poly-D-Lysine 384 well plates (20.000 cells/well; 20 μl/well). The lid covered plates are then incubated until use at 37° C./10% CO2. For dye loading, 20 μl of Calcium-4 assay kit solution (prepared according to the manufacturer's description in Ringer solution) are added to the cells and the plates are incubated for 80 min 37° C. and then 10 min at room temperature. • Controls, Compound dilution and assay execution: • Each assay plate contained wells with “high” and “low” controls:
Low controls 1% DMSO/ringer solution+basal glutamate activation (defined as 100% CTL).
High controls 10 μM CDPPB+basal glutamate activation (defined as 200% CTL).
Test compounds are dissolved and diluted in DMSO to 100-fold the desired concentrations. In a second step, the compounds are diluted in Ringer solution such that the compounds are 4-fold more concentrated than the desired final assay concentration. The final DMSO concentration was 1%.
20 μl of each compound solution are then transferred to the assay plate and the Ca2+ kinetic is measured to determine any intrinsic compound activity. After 5 min incubation in the FLIPR device, the second stimulation with 20 μl of glutamate in Ringer solution (glutamate concentration adjusted to approximately 5% basal stimulation of the maximal possible glutamate effect) is added and the kinetic Ca2+ response of the wells was measured for the modulation effect.
The peak height of the Ca release related fluorescence signal (9-66) is used for the EC50. The EC50 of the modulation is calculated over a nonlinear regression with GraphPad Prism (Table 1).

T1 sequence (P41594 21-1212): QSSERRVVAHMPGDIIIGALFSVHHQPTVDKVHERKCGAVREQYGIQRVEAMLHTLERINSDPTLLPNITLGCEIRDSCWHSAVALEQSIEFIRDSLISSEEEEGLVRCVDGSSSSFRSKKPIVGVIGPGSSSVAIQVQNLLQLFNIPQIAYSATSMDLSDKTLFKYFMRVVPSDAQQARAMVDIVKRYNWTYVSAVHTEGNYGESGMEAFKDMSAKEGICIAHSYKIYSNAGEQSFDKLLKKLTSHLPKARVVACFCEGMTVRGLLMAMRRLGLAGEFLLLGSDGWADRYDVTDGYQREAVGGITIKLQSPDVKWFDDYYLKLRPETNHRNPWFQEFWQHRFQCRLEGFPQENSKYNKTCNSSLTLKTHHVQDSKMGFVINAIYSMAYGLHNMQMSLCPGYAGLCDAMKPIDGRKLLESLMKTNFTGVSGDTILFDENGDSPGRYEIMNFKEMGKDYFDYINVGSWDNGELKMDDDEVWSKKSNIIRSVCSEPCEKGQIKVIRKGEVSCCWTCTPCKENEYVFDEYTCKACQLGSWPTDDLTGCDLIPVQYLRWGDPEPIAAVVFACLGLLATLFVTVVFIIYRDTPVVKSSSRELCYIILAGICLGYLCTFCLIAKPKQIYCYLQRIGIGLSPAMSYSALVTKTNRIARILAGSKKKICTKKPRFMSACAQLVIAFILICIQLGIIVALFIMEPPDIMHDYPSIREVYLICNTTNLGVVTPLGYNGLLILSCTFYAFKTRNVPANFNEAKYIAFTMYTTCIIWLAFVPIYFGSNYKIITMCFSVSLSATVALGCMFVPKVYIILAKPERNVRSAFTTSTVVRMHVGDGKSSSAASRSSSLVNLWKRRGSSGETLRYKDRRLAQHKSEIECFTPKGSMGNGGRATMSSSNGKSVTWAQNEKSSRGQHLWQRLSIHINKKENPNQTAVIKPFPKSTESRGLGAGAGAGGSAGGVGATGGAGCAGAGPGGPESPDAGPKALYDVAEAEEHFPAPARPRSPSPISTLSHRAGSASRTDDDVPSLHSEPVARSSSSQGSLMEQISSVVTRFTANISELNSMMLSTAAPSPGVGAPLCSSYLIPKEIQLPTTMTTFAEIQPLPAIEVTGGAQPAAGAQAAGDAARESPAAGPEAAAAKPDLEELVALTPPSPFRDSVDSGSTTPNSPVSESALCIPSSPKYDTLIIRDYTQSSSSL

Row | SMILES | EC50
1 | O=C(Cn1nc(-c2ccc(F)cc2)nc1-c1ccc(F)cc1)N1CCc2cc(O)ccc2C1 [Example 7.02.53.] | 229 nM
2 | Cc1nc2c(o1)CN(C(=O)Cn1nc(-c3ccc(F)cc3)nc1-c1ccc(F)cc1)CC2 [Example 7.02.54.] | 206 nM
3 | Cc1ncc2c(n1)CCN(C(=O)Cn1nc(-c3ccc(F)cc3)nc1-c1ccc(F)cc1)C2 [Example 7.02.55.] | 1200 nM
4 | Cc1nc2c(s1)CN(C(=O)Cn1nc(-c3ccc(F)cc3)nc1-c1ccc(F)cc1)CC2 [Example 7.02.56.] | 932 nM
5 | O=C(Cn1nc(-c2ccc(F)cc2)nc1-c1ccc(F)cc1)N1CCC(c2ncno2)CC1 [Example 7.02.57.] | 1450 nM
6 | O=C(Cn1nc(-c2ccc(F)cc2)nc1-c1ccc(F)cc1)N1Cc2ccc(O)cc2C1 [Example 7.02.58.] | 214 nM
7 | Cc1nnc(C2CCN(C(=O)Cn3nc(-c4ccc(F)cc4)nc3-c3ccc(F)cc3)CC2)o1 [Example 7.02.59.] | 450 nM
8 | COc1ncc2c(n1)CCN(C(=O)Cn1nc(-c3ccc(F)cc3)nc1-c1ccc(F)cc1)C2 [Example 7.02.60.] | 294 nM
9 | Cc1noc(C2CCN(C(=O)Cn3nc(-c4ccc(F)cc4)nc3-c3ccc(F)cc3)CC2)n1 [Example 7.02.61.] | 511 nM
10 | COc1cc2c(cc1OC)CCN(C(=O)Cn1nc(-c3ccc(F)cc3)nc1-c1ccc(F)cc1)CC2 [Example 7.02.62.] | 311 nM
11 | O=C(Cn1nc(-c2ccc(F)cc2)nc1-c1ccc(F)cc1)N1Cc2nc(-c3ccccc3)sc2C1 [Example 7.02.63.] | 1010 nM
12 | O=C(Cn1nc(-c2ccc(F)cc2)nc1-c1ccc(F)cc1)N1CCC(c2ccccn2)C1 (centres unmarked) [Example 7.02.64.] | 976 nM
13 | Cc1nc2c(o1)CCN(C(=O)Cn1nc(-c3ccc(F)cc3)nc1-c1ccc(F)cc1)C2 [Example 7.02.65.] | 407 nM
14 | O=C(Cn1nc(-c2ccc(F)cc2)nc1-c1ccc(F)cc1)N1CC=C(c2ccccc2)CC1 [Example 7.02.66.] | 559 nM
15 | O=C(Cn1nc(-c2ccc(F)cc2)nc1-c1ccc(F)cc1)N1CCc2cccnc2CC1 [Example 7.02.67.] | 133 nM
16 | O=C(Cn1nc(-c2ccc(F)cc2)nc1-c1ccc(F)cc1)N1CCN(c2nnc(C(F)(F)F)s2)CC1 [Example 7.02.68.] | 198 nM
17 | CC(C)c1ncc2c(n1)CCN(C(=O)Cn1nc(-c3ccc(F)cc3)nc1-c1ccc(F)cc1)C2 [Example 7.02.70.] | 376 nM
18 | O=C(c1ccccc1)C1CCN(C(=O)Cn2nc(-c3ccc(F)cc3)nc2-c2ccc(F)cc2)CC1 [Example 7.02.71.] | 441 nM
19 | O=C(Cn1nc(-c2ccc(F)cc2)nc1-c1ccc(F)cc1)N1CC(c2ccccn2)C1 [Example 7.02.72.] | 774 nM
20 | O=C(Cn1nc(-c2ccc(F)cc2)nc1-c1ccc(F)cc1)N1CCN(c2noc3ccccc23)CC1 [Example 7.02.73.] | 148 nM
21 | O=C(Cn1nc(-c2ccc(F)cc2)nc1-c1ccc(F)cc1)N1CCN(c2ncnc3sccc23)CC1 [Example 7.02.74.] | 798 nM
22 | O=C(Cn1nc(-c2ccc(F)cc2)nc1-c1ccc(F)cc1)N1CCN(c2ncnc3c2SCC3)CC1 [Example 7.02.76.] | 242 nM
23 | CC(=O)Nc1nc2c(s1)CCN(C(=O)Cn1nc(-c3ccc(F)c(C)c3)nc1-c1ccccc1)CC2 [Example 7.02.77.] | 232 nM
24 | Cc1cc(-c2nc(-c3ccccc3)n(CC(=O)N3CCc4nc(N)sc4C3)n2)ccc1F [Example 7.02.78.] | 274 nM
25 | COC(=O)c1ccc2c(c1)CCN(C(=O)Cn1nc(-c3ccc(F)c(C)c3)nc1-c1ccccc1)CC2 [Example 7.02.79.] | 54 nM

Row | SMILES | EC50
26 | Cc1cc(-c2nc(-c3ccccc3)n(CC(=O)N3CCc4ncnc(-c5ccccc5)c4CC3)n2)ccc1F [Example 7.02.80.] | 323 nM
27 | Cc1nc2c(s1)CC(C)N(C(=O)Cn1nc(-c3ccc(F)c(C)c3)nc1-c1ccccc1)CC2 (centres unmarked) [Example 7.02.81.] | 175 nM
28 | Cc1cc(-c2nc(-c3ccccc3)n(CC(=O)N3CCc4cc(-c5ccccc5)nnc4CC3)n2)ccc1F [Example 7.02.82.] | 149 nM
29 | COc1ccc2c(n1)CCN(C(=O)Cn1nc(-c3ccc(F)c(C)c3)nc1-c1ccccc1)CC2 [Example 7.02.83.] | 105 nM
30 | Cc1nc2c(s1)CN(C(=O)Cn1nc(-c3ccc(F)c(C)c3)nc1-c1ccccc1)CC2 [Example 7.02.84.] | 115 nM
31 | COc1nc2c(s1)CCN(C(=O)Cn1nc(-c3ccc(F)c(C)c3)nc1-c1ccccc1)CC2 [Example 7.02.85.] | 33 nM
32 | Cc1nc2c(o1)CCN(C(=O)Cn1nc(-c3ccc(F)c(C)c3)nc1-c1ccccc1)CC2 [Example 7.02.86.] | 28 nM
33 | Cc1cc(-c2nc(-c3ccccc3)n(CC(=O)N3CCc4ncsc4CC3)n2)ccc1F [Example 7.02.87.] | 58.8 nM
34 | Cc1cc(-c2nc(-c3ccccc3)n(CC(=O)N3CCc4ccc(N)cc4CC3)n2)ccc1F [Example 7.02.88.] | 180 nM
35 | Cc1cc(-c2nc(-c3ccccc3)n(CC(=O)N3CCc4cn[nH]c4CC3)n2)ccc1F [Example 7.02.89.] | 194 nM
36 | COc1cc2c(cc1OC)CCN(C(=O)Cn1nc(-c3ccc(F)c(C)c3)nc1-c1ccccc1)CC2 [Example 7.02.90.] | 155 nM
37 | COc1ccc2c(c1)CCN(C(=O)Cn1nc(-c3ccc(F)c(C)c3)nc1-c1ccccc1)CC2 [Example 7.02.91.] | 107 nM
38 | Cc1nc2c(o1)CCN(C(=O)Cn1nc(-c3ccc(F)c(C)c3)nc1-c1ccccc1)C2 [Example 7.02.92.] | 46 nM
39 | Nc1nc2c(s1)CCN(C(=O)Cn1nc(-c3ccc(F)cc3)nc1-c1ccc(F)cc1)CC2 [Example 7.03.001., 1-(2-Amino-4,5,7,8-tetrahydro-thiazolo[4,5-d]azepin-6-yl)-2-(3,5-bis-(4-fluoro-phenyl)-(1,2,4)triazol-1-yl)-ethanone] | 164 nM
40 | O=C(Cn1nc(-c2ccc(F)cc2)nc1-c1ccc(F)cc1)N1CCc2nc(-c3ccccc3)ncc2C1 [Example 7.03.002.] | 708 nM
41 | Cc1nc(C2CCN(C(=O)Cn3nc(-c4ccc(F)cc4)nc3-c3ccc(F)cc3)CC2)oc1C [Example 7.03.003.] | 851 nM
42 | O=C(Cn1nc(-c2ccc(F)cc2)nc1-c1ccc(F)cc1)N1CCC(C(O)c2ccccc2)CC1 (centres unmarked) [Example 7.03.004.] | 1060 nM
43 | O=C(Cn1nc(-c2ccc(F)cc2)nc1-c1ccc(F)cc1)N1CCC(Oc2ccccc2)CC1 [Example 7.03.005.] | 958 nM
44 | COc1cc2c(cc1OC)CN(C(=O)Cn1nc(-c3ccc(F)cc3)nc1-c1ccc(F)cc1)CC2 [Example 7.03.006.] | 1680 nM
45 | O=C(Cn1nc(-c2ccc(F)cc2)nc1-c1ccc(F)cc1)N1CCN(Cc2ccccc2)C(=O)C1 [Example 7.03.007.] | 1380 nM
46 | O=C(Cn1nc(-c2ccc(F)cc2)nc1-c1ccc(F)cc1)N1CCC(c2nnc(-c3ccccc3)o2)CC1 [Example 7.03.008.] | 752 nM
47 | O=C(Cn1nc(-c2ccc(F)cc2)nc1-c1ccc(F)cc1)N1CCC(Oc2ccccn2)CC1 [Example 7.03.009.] | 808 nM
48 | O=C(Cn1nc(-c2ccc(F)cc2)nc1-c1ccc(F)cc1)N1CCN(c2ccccc2)C(=O)C1 [Example 7.03.010.] | 734 nM
49 | O=C(Cn1nc(-c2ccc(F)cc2)nc1-c1ccc(F)cc1)N1CCc2ncsc2CC1 [Example 7.03.011.] | 453 nM
50 | O=C(Cn1nc(-c2ccc(F)cc2)nc1-c1ccc(F)cc1)N1CCC(c2ncccn2)CC1 [Example 7.03.012.] | 1470 nM
